Experimental data taken from patent US8426345B2, “Method of drug design” (Alchemia Limited, priority 2005, dated 2013).

Biological target: T1, Human SST5 somatostatin receptor (Homo sapiens, UniProt P35346)
T1 construct: expressed in transfected cells; host or cells: HEK-293 EBNA cells (membranes)
Assay: Filter plate radio-ligand binding assay for SST5 receptor ([125I]SST-14 displacement)
Conditions: 3P library; for % SST5 radio-ligand binding displaced at conc 0.001: conc 0.001 μM; for % SST5 radio-ligand binding displaced at conc 0.10: conc 0.10 μM; for % SST5 radio-ligand binding displaced at conc 0.5: conc 0.5 μM; for % SST5 radio-ligand binding displaced at conc 1.0: conc 1.0 μM; for % SST5 radio-ligand binding displaced at conc 10: conc 10 μM; for % SST5 radio-ligand binding displaced at conc 0.25: conc 0.25 μM

T1 sequence (P35346 whole entry): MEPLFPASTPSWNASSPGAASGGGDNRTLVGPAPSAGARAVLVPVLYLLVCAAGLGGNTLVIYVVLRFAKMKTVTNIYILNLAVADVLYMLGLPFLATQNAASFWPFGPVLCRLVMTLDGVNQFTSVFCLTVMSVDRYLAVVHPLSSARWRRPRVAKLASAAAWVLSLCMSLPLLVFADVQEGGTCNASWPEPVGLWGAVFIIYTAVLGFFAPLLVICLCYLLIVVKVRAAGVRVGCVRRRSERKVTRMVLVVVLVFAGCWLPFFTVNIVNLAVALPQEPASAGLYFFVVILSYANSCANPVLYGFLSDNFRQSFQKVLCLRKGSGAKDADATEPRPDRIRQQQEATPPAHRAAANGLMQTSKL

| Structure (SMILES) | % SST5 radio-ligand binding displaced at conc 0.001 | % SST5 radio-ligand binding displaced at conc 0.10 | % SST5 radio-ligand binding displaced at conc 0.5 | % SST5 radio-ligand binding displaced at conc 1.0 | % SST5 radio-ligand binding displaced at conc 10 | % SST5 radio-ligand binding displaced at conc 0.25 |
| --- | --- | --- | --- | --- | --- | --- |
| COCC1OC(OCc2ccc3ccccc3c2)C(NC(=O)CCN)C(OCc2ccccc2)C1O (mixture of isomers) [Compound 64] | − (% SST5 radio-ligand binding displaced at cone (μM) −<40%) | + (% SST5 radio-ligand binding displaced at cone (μM) 60>+>40%) | ++ (% SST5 radio-ligand binding displaced at conc (μM) >60%) | ++ (% SST5 radio-ligand binding displaced at conc (μM) >60%) | ++ (% SST5 radio-ligand binding displaced at conc (μM) >60%) | – |
| COCC1OC(OCc2ccc3ccccc3c2)C(NC(=O)CCN)C(OCc2ccccc2)C1O (mixture of isomers) [Compound 65] | – | – | – | – | ++ (% SST5 radio-ligand binding displaced at conc (μM) >60%) | – |
| COCC1OC(OCc2ccc3ccccc3c2)C(NC(=O)CCN)C(OCc2ccc(Cl)cc2)C1O (mixture of isomers) [Compound 66] | − (% SST5 radio-ligand binding displaced at cone (μM) −<40%) | − (% SST5 radio-ligand binding displaced at cone (μM) −<40%) | ++ (% SST5 radio-ligand binding displaced at conc (μM) >60%) | ++ (% SST5 radio-ligand binding displaced at conc (μM) >60%) | ++ (% SST5 radio-ligand binding displaced at conc (μM) >60%) | – |
| COCC1OC(OCc2ccc3ccccc3c2)C(NC(=O)CCN)C(OCc2ccc(Cl)cc2)C1O (mixture of isomers) [Compound 67] | – | – | – | – | ++ (% SST5 radio-ligand binding displaced at conc (μM) >60%) | – |
| COCC1OC(OCc2ccc3ccccc3c2)C(NC(=O)CCN)C(OCc2ccc(-c3ccccc3)cc2)C1O (mixture of isomers) [Compound 68] | − (% SST5 radio-ligand binding displaced at cone (μM) −<40%) | − (% SST5 radio-ligand binding displaced at cone (μM) −<40%) | ++ (% SST5 radio-ligand binding displaced at conc (μM) >60%) | ++ (% SST5 radio-ligand binding displaced at conc (μM) >60%) | ++ (% SST5 radio-ligand binding displaced at conc (μM) >60%) | − (% SST5 radio-ligand binding displaced at cone (μM) −<40%) |
| COCC1OC(OCc2ccc3ccccc3c2)C(NC(=O)CCN)C(OCc2ccc3ccccc3c2)C1O (mixture of isomers) [Compound 69] | + (% SST5 radio-ligand binding displaced at cone (μM) 60>+>40%) | ++ (% SST5 radio-ligand binding displaced at conc (μM) >60%) | ++ (% SST5 radio-ligand binding displaced at conc (μM) >60%) | ++ (% SST5 radio-ligand binding displaced at conc (μM) >60%) | ++ (% SST5 radio-ligand binding displaced at conc (μM) >60%) | – |
| NCCC(=O)NC1C(OCc2ccc3ccccc3c2)OC(COCc2ccc3ccccc3c2)C(O)C1OCc1ccc(Cl)cc1 (mixture of isomers) [Compound 70] | – | – | – | + (% SST5 radio-ligand binding displaced at cone (μM) 60>+>40%) | – | − (% SST5 radio-ligand binding displaced at cone (μM) −<40%) |
| NCCC(=O)NC1C(OCc2ccc3ccccc3c2)OC(COCc2ccccc2)C(O)C1OCc1ccc(Cl)cc1 (mixture of isomers) [Compound 71] | – | – | – | ++ (% SST5 radio-ligand binding displaced at conc (μM) >60%) | – | − (% SST5 radio-ligand binding displaced at cone (μM) −<40%) |
| NCCC(=O)NC1C(OCc2ccc3ccccc3c2)OC(COCc2ccc(Cl)cc2)C(O)C1OCc1ccc(Cl)cc1 (mixture of isomers) [Compound 72] | – | – | – | ++ (% SST5 radio-ligand binding displaced at conc (μM) >60%) | – | − (% SST5 radio-ligand binding displaced at cone (μM) −<40%) |
